Measurements taken from ChEMBL document CHEMBL1201862, “PubChem BioAssay data set” (2004).
Values joined by “and” are separate entries in the source; they are usually repeats but may differ in a detail not shown here. Identical values can stand only once. Active and inactive are the calls of the source.

Legend:
Procathepsin L = Procathepsin L (Homo sapiens, UniProt P07711); assay: cathepsin L inhibitors, dose response, counter-screen for M1/M17 aminopeptidase inhibitor project, biochemical, QFRET, 1536-well (AID 2214)
Aspartyl aminopeptidase = Aspartyl aminopeptidase (Plasmodium falciparum 3D7, UniProt Q8I2J3); assay: Counterscreen for inhibitors of M1 and M17 aminopeptidases: QFRET-based biochemical high throughput dose response assay for inhibitors of the Plasmodium falciparum M18 Aspartyl Aminopeptidase (PFM18AAP). [Related PubChem assays: 1619 (Screening assay (M17LAP inhibitors).), 1445 (Screening assay (M1AAP inhibitors).)]
Leucine aminopeptidase = biological target: T1, Leucine aminopeptidase (Plasmodium falciparum 3D7, UniProt Q8IL11); assay: P. falciparum M17LAP inhibitors, primary screen, biochemical, fluorogenic H-Leu-NHMec substrate, 1536-well (AID 1619); assay type: functional
T1 sequence (Q8IL11 whole entry): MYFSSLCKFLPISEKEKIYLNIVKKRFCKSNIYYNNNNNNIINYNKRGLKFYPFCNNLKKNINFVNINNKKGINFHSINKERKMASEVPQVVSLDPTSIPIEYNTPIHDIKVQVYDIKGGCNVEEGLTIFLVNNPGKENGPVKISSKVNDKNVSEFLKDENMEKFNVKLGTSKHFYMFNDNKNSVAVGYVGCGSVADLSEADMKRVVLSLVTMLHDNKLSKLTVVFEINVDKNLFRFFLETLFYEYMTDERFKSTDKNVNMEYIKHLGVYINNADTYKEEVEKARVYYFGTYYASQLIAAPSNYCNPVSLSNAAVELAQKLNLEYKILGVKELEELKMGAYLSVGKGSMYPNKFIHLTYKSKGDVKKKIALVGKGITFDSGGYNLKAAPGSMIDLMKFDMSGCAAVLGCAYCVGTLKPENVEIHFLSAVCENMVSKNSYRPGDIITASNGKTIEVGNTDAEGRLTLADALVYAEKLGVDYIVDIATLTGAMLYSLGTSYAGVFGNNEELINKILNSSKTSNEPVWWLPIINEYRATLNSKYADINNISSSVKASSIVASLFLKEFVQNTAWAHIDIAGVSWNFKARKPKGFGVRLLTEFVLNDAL

[1] = Luminescence Cell-Based Dose Retest to Confirm Inhibitors of Cancer Stem Cells. [Related pubchem assays (depositor defined):AID2717, AID2721]; assay type: functional; conditions: Homo sapiens
[2] = biological target: Glyceraldehyde-3-phosphate dehydrogenase (Homo sapiens, UniProt P04406)
Bcl-2-related protein A1 [3] = biological target: T2, Bcl-2-related protein A1 (Mus musculus, UniProt Q07440); assay: Bfl-1 inhibitors blocking BH3 peptide binding, confirmation, biochemical, TR-FRET, mouse Bfl-1 (AID 621);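 note: TR-FRET binding of GST-Bfl-1 to FITC-labelled Bid peptide via terbium antibody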
T2 sequence (Q07440 whole entry): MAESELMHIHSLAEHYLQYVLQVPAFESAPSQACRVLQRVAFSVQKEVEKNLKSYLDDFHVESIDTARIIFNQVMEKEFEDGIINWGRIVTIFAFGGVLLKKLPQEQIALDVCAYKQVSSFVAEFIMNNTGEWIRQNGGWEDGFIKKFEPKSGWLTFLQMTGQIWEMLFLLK

[4] = HepG2 cell cytotoxicity, dose response, cytotoxicity control for Shn3 inhibitor project, CellTiter-Glo, cherry-picked (AID 624134); assay type: functional, cell-based
[5] = biological target: T3, Replicative DNA helicase DnaB (Mycobacterium tuberculosis, UniProt P9WMR3); assay: DnaB intein splicing inhibitors, dose response, biochemical, cell-free fluorescence (AID 449749); assay type: functional
T3 sequence (P9WMR3 whole entry): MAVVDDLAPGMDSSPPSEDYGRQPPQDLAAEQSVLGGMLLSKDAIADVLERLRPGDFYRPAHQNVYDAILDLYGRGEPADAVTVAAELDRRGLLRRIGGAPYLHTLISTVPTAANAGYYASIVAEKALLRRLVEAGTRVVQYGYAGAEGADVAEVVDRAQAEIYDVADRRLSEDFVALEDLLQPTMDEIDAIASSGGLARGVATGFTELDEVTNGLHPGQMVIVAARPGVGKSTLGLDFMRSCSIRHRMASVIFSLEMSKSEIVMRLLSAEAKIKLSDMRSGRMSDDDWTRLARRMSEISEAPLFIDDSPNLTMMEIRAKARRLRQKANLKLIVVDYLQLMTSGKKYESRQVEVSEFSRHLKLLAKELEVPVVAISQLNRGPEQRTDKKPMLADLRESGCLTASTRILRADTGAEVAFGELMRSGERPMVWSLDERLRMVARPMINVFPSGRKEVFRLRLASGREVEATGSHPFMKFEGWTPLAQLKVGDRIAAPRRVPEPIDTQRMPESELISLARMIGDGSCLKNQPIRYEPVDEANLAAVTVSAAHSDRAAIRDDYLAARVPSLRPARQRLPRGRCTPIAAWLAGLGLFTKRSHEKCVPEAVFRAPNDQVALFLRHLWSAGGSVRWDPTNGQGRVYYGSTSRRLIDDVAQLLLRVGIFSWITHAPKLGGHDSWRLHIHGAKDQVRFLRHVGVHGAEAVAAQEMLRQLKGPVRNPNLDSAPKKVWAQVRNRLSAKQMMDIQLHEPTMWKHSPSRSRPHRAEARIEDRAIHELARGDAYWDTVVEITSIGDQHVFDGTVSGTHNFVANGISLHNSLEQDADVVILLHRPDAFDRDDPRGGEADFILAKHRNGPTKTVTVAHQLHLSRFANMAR

CHO = assay: cytotoxicity in TLR9-MyD88 CHO cells, dose response, cytotoxicity control for TLR9-MyD88 binding inhibitor project, cell-based, luminescence (AID 588339); assay type: functional, hamster; conditions: Cricetulus griseus;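 note: CHO cells stably coexpressing TLR9 and MyD88 fusions from primary screen; compound exposure lasted 48 hours before viability readout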
Bcl-2-related protein A1 [6] = biological target: T2, Bcl-2-related protein A1; assay: Bfl-1 inhibitors, primary screen, biochemical, fluorescence polarization, FITC-Bid, mouse (AID 432)
[7] = inhibitors of PGC1a acetylation in cells, dose response, cell-based, cherry-picked samples (AID 720514); assay type: functional;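 note: potency may reflect raised or lowered acetylation signal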
[8] = control 3'UTR Renilla luciferase suppression, dose response, counter-screen for Shn3 inhibitor project, cell-based, Clone20-Shn3RL, cherry-picked (AID 624133); assay type: functional
Bcl-2-related protein A1 [9] = biological target: T2, Bcl-2-related protein A1; assay: Bfl-1 binding inhibitors, SAR follow-up, biochemical, fluorescence polarization (AID 1070)
Beta Lactamase = Beta Lactamase (Pseudomonas aeruginosa, UniProt Q932Y6); assay: beta-lactamase reporter inhibitor potency, dose response, artefact control for TLR9-MyD88 binding inhibitor project, BLA reporter cells, FRET fluorescence (AID 588341); assay type: cell-based;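 note: cell based assay in CHO-K1 cells stably expressing beta-lactamase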
[10] = Shn3 3'UTR reporter inhibitors, dose response, cell-based, Clone20 osteoblasts, firefly luciferase, cherry-picked (AID 624132); assay type: functional;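 note: firefly luciferase luminescence from reporter carrying the Shn3 3'UTR in osteoblasts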
Protein RecA = biological target: T4, Protein RecA (Mycobacterium tuberculosis, UniProt P9WHJ3); assay: Fluorescence Cell-Free Homogeneous Dose Retest to Identify Inhibitors of RecA-Intein Splicing Activity. [Related pubchem assays (depositor defined):AID2097, AID2223, AID489010, AID492950]; assay type: functional
T4 sequence (P9WHJ3 whole entry): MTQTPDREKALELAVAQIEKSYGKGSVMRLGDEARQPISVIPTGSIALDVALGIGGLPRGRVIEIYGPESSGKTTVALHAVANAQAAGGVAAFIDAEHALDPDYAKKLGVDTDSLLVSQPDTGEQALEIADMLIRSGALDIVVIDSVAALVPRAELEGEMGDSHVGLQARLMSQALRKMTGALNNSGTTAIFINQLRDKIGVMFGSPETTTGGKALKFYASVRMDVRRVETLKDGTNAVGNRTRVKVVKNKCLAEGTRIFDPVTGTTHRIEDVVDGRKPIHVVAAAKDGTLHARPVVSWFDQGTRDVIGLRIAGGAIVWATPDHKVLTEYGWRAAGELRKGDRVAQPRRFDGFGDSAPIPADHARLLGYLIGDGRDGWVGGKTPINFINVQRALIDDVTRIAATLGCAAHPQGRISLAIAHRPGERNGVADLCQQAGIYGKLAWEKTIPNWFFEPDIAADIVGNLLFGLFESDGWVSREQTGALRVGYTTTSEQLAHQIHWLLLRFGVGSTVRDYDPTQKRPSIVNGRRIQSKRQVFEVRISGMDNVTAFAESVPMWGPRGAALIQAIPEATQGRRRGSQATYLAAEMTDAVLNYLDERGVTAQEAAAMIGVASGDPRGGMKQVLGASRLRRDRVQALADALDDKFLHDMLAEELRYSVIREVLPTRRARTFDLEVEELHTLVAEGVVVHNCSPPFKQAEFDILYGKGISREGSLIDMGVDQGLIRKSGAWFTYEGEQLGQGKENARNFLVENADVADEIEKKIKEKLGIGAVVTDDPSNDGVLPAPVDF

INS1 = assay: beta cell apoptosis inhibitors, cytokine rescue, dose response, luminescence, retest (AID 449756); assay type: functional, cell-based; conditions: Rattus norvegicus;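 note: cell death triggered by IL-1 beta plus TNF-alpha plus IFN-gamma mixture; protective hits raise ATP signal compared with cytokine alone wells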
[11] = Luminescence Cell-Based Dose Confirmation HTS to Identify Inhibitors of Polyadenylation.; assay type: functional
Danio rerio = assay: In Vivo Angiogenesis Dose-Response Confirmation. [Related pubchem assays: 732 (Assay preceding this confirmatory assay.)]; assay type: functional, organism-based
[12] = microbe, parasite or virus in culture; assay type: functional; conditions: Mycobacterium tuberculosis
[13] = M. tuberculosis growth inhibition, HTS (AID 449762); assay type: functional

Sequence of Aspartyl aminopeptidase (Q8I2J3 whole entry): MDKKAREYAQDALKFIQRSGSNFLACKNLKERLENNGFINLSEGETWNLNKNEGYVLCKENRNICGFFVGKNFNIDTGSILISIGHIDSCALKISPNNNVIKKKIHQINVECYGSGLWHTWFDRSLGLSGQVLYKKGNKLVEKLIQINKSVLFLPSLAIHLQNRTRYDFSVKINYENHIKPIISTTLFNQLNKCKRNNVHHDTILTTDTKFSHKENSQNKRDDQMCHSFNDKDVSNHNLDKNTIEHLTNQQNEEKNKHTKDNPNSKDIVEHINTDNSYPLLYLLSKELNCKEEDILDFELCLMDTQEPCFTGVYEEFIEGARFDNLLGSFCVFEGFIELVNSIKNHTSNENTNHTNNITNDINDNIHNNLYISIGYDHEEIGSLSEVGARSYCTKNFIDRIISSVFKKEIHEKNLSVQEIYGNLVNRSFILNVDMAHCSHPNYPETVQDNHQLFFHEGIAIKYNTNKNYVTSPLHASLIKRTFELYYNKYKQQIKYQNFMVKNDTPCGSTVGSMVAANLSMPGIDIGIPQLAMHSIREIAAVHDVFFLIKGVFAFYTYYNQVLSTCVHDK
Sequence of Glyceraldehyde-3-phosphate dehydrogenase (P04406 whole entry): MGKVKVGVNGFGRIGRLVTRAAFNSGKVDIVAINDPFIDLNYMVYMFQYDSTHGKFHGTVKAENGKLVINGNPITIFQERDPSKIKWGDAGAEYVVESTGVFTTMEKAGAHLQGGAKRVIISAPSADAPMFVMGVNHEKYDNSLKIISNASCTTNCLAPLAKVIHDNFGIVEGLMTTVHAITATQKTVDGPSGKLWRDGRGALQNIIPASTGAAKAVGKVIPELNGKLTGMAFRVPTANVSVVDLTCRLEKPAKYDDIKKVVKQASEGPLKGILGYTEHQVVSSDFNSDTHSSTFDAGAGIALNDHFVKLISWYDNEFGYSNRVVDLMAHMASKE
Sequence of Beta Lactamase (Q932Y6 whole entry): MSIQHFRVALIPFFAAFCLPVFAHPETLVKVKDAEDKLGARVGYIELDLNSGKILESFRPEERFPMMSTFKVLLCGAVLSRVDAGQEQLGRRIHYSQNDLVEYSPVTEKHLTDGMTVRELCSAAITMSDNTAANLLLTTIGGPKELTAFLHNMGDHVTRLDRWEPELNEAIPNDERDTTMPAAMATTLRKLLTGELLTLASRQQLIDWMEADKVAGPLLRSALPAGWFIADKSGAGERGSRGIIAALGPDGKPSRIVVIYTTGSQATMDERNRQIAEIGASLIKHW
Sequence of Procathepsin L (P07711 whole entry): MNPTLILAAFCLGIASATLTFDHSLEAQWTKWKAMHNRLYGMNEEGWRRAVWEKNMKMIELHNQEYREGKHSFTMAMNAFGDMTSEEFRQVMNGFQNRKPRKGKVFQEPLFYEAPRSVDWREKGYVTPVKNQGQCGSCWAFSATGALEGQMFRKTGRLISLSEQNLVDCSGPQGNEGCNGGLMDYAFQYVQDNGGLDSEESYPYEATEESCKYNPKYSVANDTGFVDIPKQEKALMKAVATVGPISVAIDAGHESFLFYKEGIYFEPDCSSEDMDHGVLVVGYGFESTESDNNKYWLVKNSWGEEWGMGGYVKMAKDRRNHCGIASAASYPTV

In the case of `CCOc1ccc(NC(=O)Nc2ccc3nccnc3c2)cc1`, the IC50 (Procathepsin L) is reported as > 59.6 µM (not active), the IC50 (Aspartyl aminopeptidase) is reported as > 73.5 µM (not active) and the IC50 (Leucine aminopeptidase) is reported as 5.45 µM (active).

With `CCOC(=O)CS(=O)(=O)c1nc(-c2ccccc2)cc(C(F)(F)F)n1` the AC50 [1] was 2.77 µM (active), the IC50 [2] was > 100 µM (not active) and the IC50 (Bcl-2-related protein A1 [3]) was 4.63 µM (active) and 1.18 µM (active). For the same compound, the AC50 [4] was 12.9 µM (active), the AC50 [5] was 2.9 µM (active) and the IC50 (CHO) was 4.43 µM (active). For the same compound, the IC50 (Bcl-2-related protein A1 [6]) was 3.72 µM (active), the AC50 [7] was 6.64 µM (active) and the AC50 [8] was 6.93 µM (active). For the same compound, the IC50 (Bcl-2-related protein A1 [9]) was 5.36 µM (active), the IC50 (Beta Lactamase) was 19.2 µM (inactive) and the AC50 [10] was 3.42 µM (active). The EC50 (Protein RecA) was 4.15 µM (active) and the AC50 (INS1) was 7.22 µM (active).

For `COc1ccc(-c2cccc(NC(=O)COc3ccc(Cl)cc3)c2)nn1`, the EC50 [11] was > 120 µM (not active).

In the case of `Cc1cccc2c1NC(=O)/C2=C1\Nc2ccccc2C1=O`, the IC50 (Danio rerio) is reported as 1.23 µM (active).

In the case of `CCOc1cc(/C=N\NC(=O)Cn2nc([N+](=O)[O-])cc2C)ccc1OCc1cccc2ccccc12`, the CC50 [12] is reported as > 40 µM (active) and the IC50 [13] is reported as > 100 µM (active).
